Reference: patent US12098139B2, “Chemokine receptor modulators and uses thereof” (RAPT Therapeutics, Inc., priority 2018, dated 2024)
pIC50: −log10 of the molar value.

What follows are molecules tested against T1, hCCR4 (Chem5-hCCR4 cells) (Homo sapiens, UniProt P51679) (assay: Calcium flux assay (CCL22-stimulated, FLIPR Calcium 6 dye)). Conditions: Table 3, CCL22 1.5 nM, read-out: Potency (IC50).
T1 sequence (P51679 1-360): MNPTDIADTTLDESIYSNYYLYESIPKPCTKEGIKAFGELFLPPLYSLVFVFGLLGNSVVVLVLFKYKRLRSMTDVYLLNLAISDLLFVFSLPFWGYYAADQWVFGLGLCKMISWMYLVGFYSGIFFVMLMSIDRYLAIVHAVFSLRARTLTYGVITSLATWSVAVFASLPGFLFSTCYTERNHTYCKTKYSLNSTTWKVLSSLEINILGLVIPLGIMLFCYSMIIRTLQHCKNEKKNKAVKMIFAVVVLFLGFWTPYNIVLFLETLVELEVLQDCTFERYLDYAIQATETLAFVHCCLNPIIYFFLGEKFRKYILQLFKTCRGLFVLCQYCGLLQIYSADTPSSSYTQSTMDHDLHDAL
Type: cell-based
Procedure: Calcium Flux Assay. Compounds were evaluated in a calcium flux assay substantially performed as follows. Chem5-hCCR4 cells (EMD Millipore, Hayward, CA; HTS009C) were cultured under standard conditions and frozen in aliquots of 10×10^6 cells/mL. The day prior to compound testing, a vial was rapidly thawed and pipetted into 20 mL media (DMEM+10% FBS+1% Pen-Strep+1% L-glutamine). Cells were harvested by centrifugation and re-suspended in fresh culture medium. 25 μL of cell suspension was seeded into 384-well plates (Corning, Tewksbury, MA; CellBind with black wall/clear bottom). The plates were centrifuged at 300 g for 10 seconds and incubated overnight at 37° C. and 5% CO2. The day of compound testing, media was removed from the plates and 25 μL serum free media was added to each well. Plates were returned to the incubator for 2 h. 25 μL assay buffer (Hank's balanced salt solution+20 mM HEPES pH 7.4) containing FLIPR Calcium 6 dye (Molecular Devices, Sunnyvale, CA; #R8191) and probenecid (2.5 mM) was added to each well and incubated at 37° C. and 5% CO2 for 2 h. Compounds in DMSO were added to the plates using an HP D300e digital dispenser, and all wells were normalized to contain 0.25 μL (0.5%) DMSO. Plates were incubated for 1 hour at 37° C. and 5% CO2. CCL22 (Peprotech; Rockyhill, NJ) was diluted in assay buffer containing 0.1% BSA to 7.5 nM (corresponding to 5×EC80 of 1.5 nM).
Assay plates and working solution of CCL22 were transferred to the FlexStation plate reader (Molecular Devices) at 37° C. for 5 min of equilibration. Fluorescence recordings at 485 excitation/525 emission were performed at 2.5 second intervals. At t=16 seconds, 12.5 μL of CCL22 solution was added to each well and reads continued for 30 seconds at 2.5 second intervals. The minimum fluorescence (Fmin) was calculated by averaging the reads prior to ligand addition and the change in fluorescence (ΔF) was calculated by subtracting the Fmin from the average of the reads following ligand addition. The response ΔF/Fmin was plotted as a function of the compound concentration and the IC50 values were determined by non-linear regression analysis using a 4-parameter fit in either PRISM software (GraphPad; La Jolla, CA) or Dotmatics Browser.

pIC50, < 6.30:
C[C@@H](Nc1nc(N2CC([C@H]3CCCN(CCO)C3)C2)ncc1C#N)c1ccc(S(C)(=O)=O)cc1Cl [Example 42, 4-(((R)-1-(2-chloro-4-(methylsulfonyl)phenyl)ethyl)amino)-2-(3-((R)-1-(2-hydroxyethyl)piperidin-3-yl)azetidin-1-yl)pyrimidine-5-carbonitrile]
C[C@@H](Nc1nc(N2CC([C@H]3CCCN([C@H]4C[C@@H](C(=O)O)C4)C3)C2)ncc1F)c1ccc(Cl)cc1Cl [Example 46, (1S,3s)-3-((R)-3-(1-(4-(((R)-1-(2,4-dichlorophenyl)ethyl)amino)-5-fluoropyrimidin-2-yl)azetidin-3-yl)piperidin-1-yl)cyclobutane-1-carboxylic acid]

pIC50, > 7.00:
C[C@@H](Nc1nc(N2CC([C@H]3CCCN(CCO)C3)C2)cnc1C#N)c1ccc(Cl)cc1Cl [Example 1, 3-(((R)-1-(2,4-dichlorophenyl)ethyl)amino)-5-(3-((R)-1-(2-hydroxyethyl)piperidin-3-yl)azetidin-1-yl)pyrazine-2-carbonitrile]
C[C@@H](Nc1nc(N2CC([C@H]3CCCN([C@H]4C[C@](C)(C(=O)O)C4)C3)C2)nc2sccc12)c1ccc(Cl)cc1Cl [Example 29, (1R,3r)-3-((R)-3-(1-(4-(((R)-1-(2,4-dichlorophenyl)ethyl)amino)thieno[2,3-d]pyrimidin-2-yl)azetidin-3-yl)piperidin-1-yl)-1-methylcyclobutane-1-carboxylic acid]
Cc1cnc(N2CC([C@H]3CCCN(CC(C)(C)O)C3)C2)nc1N[C@H](C)c1ccc(Cl)cc1Cl [Example 19, 1-((R)-3-(1-(4-(((R)-1-(2,4-dichlorophenyl)ethyl)amino)-5-methylpyrimidin-2-yl)azetidin-3-yl)piperidin-1-yl)-2-methylpropan-2-ol]
Cc1nc(N2CC([C@H]3CCCN([C@H]4C[C@](C)(C(=O)O)C4)C3)C2)nc(N[C@H](C)c2ccc(Cl)cc2Cl)c1Cl [Example 38, (1R,3r)-3-((R)-3-(1-(5-chloro-4-(((R)-1-(2,4-dichlorophenyl)ethyl)amino)-6-methylpyrimidin-2-yl)azetidin-3-yl)piperidin-1-yl)-1-methylcyclobutane-1-carboxylic acid]
C[C@@H](Nc1nc(N2CC([C@H]3CCCN([C@H]4C[C@@H](C(=O)O)C4)C3)C2)nc2ccccc12)c1ccc(Cl)cc1Cl [Example 25, (1S,3s)-3-((R)-3-(1-(4-(((R)-1-(2,4-dichlorophenyl)ethyl)amino)quinazolin-2-yl)azetidin-3-yl)piperidin-1-yl)cyclobutane-1-carboxylic acid]
C[C@@H](Nc1nc(N2CC([C@H]3CCCN(CCO)C3)C2)ncc1Br)c1ccc(F)cc1Cl [Example 43, 2-((R)-3-(1-(5-bromo-4-(((R)-1-(2-chloro-4-fluorophenyl)ethyl)amino)pyrimidin-2-yl)azetidin-3-yl)piperidin-1-yl)ethan-1-ol]
C[C@@H](Nc1nc(N2CC([C@H]3CCCN([C@H]4C[C@](C)(C(=O)O)C4)C3)C2)ncc1Br)c1ccc(Cl)cc1Cl [Example 13, (1R,3r)-3-((R)-3-(1-(5-bromo-4-(((R)-1-(2,4-dichlorophenyl)ethyl)amino)pyrimidin-2-yl)azetidin-3-yl)piperidin-1-yl)-1-methylcyclobutane-1-carboxylic acid]
Cc1cnc(N2CC([C@H]3CCCN(CCN4CCCC4=O)C3)C2)nc1N[C@H](C)c1ccc(Cl)cc1Cl [Example 16, 1-(2-((R)-3-(1-(4-(((R)-1-(2,4-dichlorophenyl)ethyl)amino)-5-methylpyrimidin-2-yl)azetidin-3-yl)piperidin-1-yl)ethyl)pyrrolidin-2-one]

pIC50, 6.30 to 7.00:
CC[C@]1(C(=O)O)C[C@H](N2CCC[C@H](C3CN(c4ncc(Cl)c(N[C@H](C)c5ccc(Cl)cc5Cl)n4)C3)C2)C1 [Example 23, (1R,3s)-3-((R)-3-(1-(5-chloro-4-(((R)-1-(2,4-dichlorophenyl)ethyl)amino)pyrimidin-2-yl)azetidin-3-yl)piperidin-1-yl)-1-ethylcyclobutane-1-carboxylic acid]
C[C@@H](Nc1nc(N2CC([C@H]3CCCN(CCO)C3)C2)nc2c1CCC2)c1ccc(Cl)cc1Cl [Example 24, 2-((R)-3-(1-(4-(((R)-1-(2,4-dichlorophenyl)ethyl)amino)-6,7-dihydro-5H-cyclopenta[d]pyrimidin-2-yl)azetidin-3-yl)piperidin-1-yl)ethan-1-ol]

Same assay, conditions: Table 5, CCL22 1.5 nM, read-out: Potency (IC50)

pIC50, > 7.00:
C[C@@H](Nc1nc(N2CC([C@H]3CCCN([C@H]4C[C@@H](C(=O)O)C4)C3)C2)nc2ccccc12)c1ccc(Cl)cc1Cl [Example 95, 3-[(1S,3R)-3-[1-[4-[[(1R)-1-(2,4-dichlorophenyl)ethyl]amino]quinazolin-2-yl]azetidin-3-yl]-1-piperidyl]cyclobutanecarboxylic acid; 2,2,2-trifluoroacetic acid]
COc1cnc(N2CC([C@H]3CCCN(C4CC(C)(C(=O)O)C4)C3)C2)nc1N[C@H](C)c1ccc(Cl)cc1Cl (single isomer, unassigned) [Example 83]
Cc1csc2nc(N3CC([C@H]4CCCN(C5CC(C)(C(=O)O)C5)C4)C3)nc(N[C@H](C)c3ccc(Cl)cc3Cl)c12 (single isomer, unassigned) [Example 74, trifluoroacetic acid]
CC(C)C(O)c1cnc(N2CC([C@H]3CCCN([C@H]4C[C@](C)(C(=O)O)C4)C3)C2)nc1N[C@H](C)c1ccc(Cl)cc1Cl (stereo partly drawn) [Example 76, 3-[(3R)-3-[1-[4-[[(1R)-1-(2,4-dichlorophenyl)ethyl]amino]-5-(1-hydroxy-2-methyl-propyl)pyrimidin-2-yl]azetidin-3-yl]-1-piperidyl]-1-methyl-cyclobutanecarboxylic acid; 2,2,2-trifluoroacetic acid]
C[C@@H](Nc1nc(N2CC([C@H]3CCCN(C4CC(C)(C(=O)O)C4)C3)C2)nc(CO)c1Cl)c1ccc(Cl)cc1Cl (single isomer, unassigned) [Example 86]
C[C@@H](Nc1nc(N2CC(C3CCCN(C4CC(CO)C4)C3C(=O)O)C2)ncc1Cl)c1ccc(Cl)cc1Cl (stereo partly drawn) [Example 88, 3-[1-[5-chloro-4-[[(1R)-1-(2,4-dichlorophenyl)ethyl]amino]pyrimidin-2-yl]azetidin-3-yl]-1-[3-(hydroxymethyl)cyclobutyl]piperidine-2-carboxylic acid; 2,2,2-trifluoroacetic acid]
C[C@@H](Nc1nc(N2CC([C@H]3CCCN(C4CC(C)(C(=O)O)C4)C3)C2)nc2cc[nH]c12)c1ccc(Cl)cc1Cl (single isomer, unassigned) [Example 72, trifluoroacetic acid]
CCC(O)c1cnc(N2CC([C@H]3CCCN([C@H]4C[C@](C)(C(=O)O)C4)C3)C2)nc1N[C@H](C)c1ccc(Cl)cc1Cl (stereo partly drawn) [Example 73, 3-[(3R)-3-[1-[4-[[(1R)-1-(2,4-dichlorophenyl)ethyl]amino]-5-(1-hydroxypropyl)pyrimidin-2-yl]azetidin-3-yl]-1-piperidyl]-1-methyl-cyclobutanecarboxylic acid; 2,2,2-trifluoroacetic acid]

pIC50, < 6.30:
COc1cc(N[C@H](C)c2ccc(Cl)cc2Cl)nc(N2CC([C@H]3CCCN(C4CC(C)(C(=O)O)C4)C3)C2)n1 (single isomer, unassigned) [Example 82]

pIC50, 6.30 to 7.00:
C[C@@H](Nc1nc(N2CC([C@H]3CCCN(CCO)C3)C2)ncc1C(=O)N1CCCC1)c1ccc(Cl)cc1Cl [Example 85, [4-[[(1R)-1-(2,4-dichlorophenyl)ethyl]amino]-2-[3-[(3R)-1-(2-hydroxyethyl)-3-piperidyl]azetidin-1-yl]pyrimidin-5-yl]-pyrrolidin-1-yl-methanone; 2,2,2-trifluoroacetic acid]
C[C@@H](Nc1nc(N2CC([C@H]3CCCN(C4CC(C)(C(=O)O)C4)C3)C2)nc2nc[nH]c12)c1ccc(Cl)cc1Cl (single isomer, unassigned) [Example 69]
